# Data from US4486586A, “Cephalosporin derivatives” (Bristol-Myers Company, priority 1983, dated 1984).
# Key:
# [1] = test system: M. morganii, Ent. cloacae and Ser. marcescens; experiment: MIC, two-fold serial agar dilution in Mueller-Hinton agar, group (G-)-II; assay type: cell-based; settings: 5 strains, read-out: Geometric Mean of MIC, (G-)-II
# Protocol: (§1) In the primary evaluation of the compounds of this invention, the Minimum Inhibitory Concentrations (MIC's) of the compounds were determined by the two-fold serial agar dilution method in Mueller-Hinton agar against 32 strains of test organisms in six groups.
# (G-)II: M. morganii (1 strain), Ent. cloacae (2 strains) andSer.
# [2] = test system: Ps. aeruginosa; experiment: MIC, two-fold serial agar dilution in Mueller-Hinton agar, group (G-)-III; assay type: cell-based; settings: Pseudomonas aeruginosa, 7 strains, read-out: Geometric Mean of MIC, (G-)-III
# Protocol: as §1
# (G-)III: Ps. aeruginosa (7 strains)
# [3] = test system: Cephalothinresistant E. coli and Kl. pneumoniae; experiment: MIC, two-fold serial agar dilution in Mueller-Hinton agar, group (G-)-Ib; assay type: cell-based, E. coli (3 strains) and Kl. pneumoniae (3 strains); settings: read-out: Geometric Mean of MIC, (G-)-Ib
# Protocol: as §1
# (G-)Ib: Cephalothinresistant E. coli (3 strains) and Kl. pneumoniae (3
# [4] = test system: Penicillinsensitive S. aureus; experiment: MIC, two-fold serial agar dilution in Mueller-Hinton agar, group (G+)-Ia; assay type: cell-based; settings: Staphylococcus aureus, penicillin-sensitive S. aureus, 5 strains, read-out: Geometric Mean of MIC, (G+)-Ia
# Protocol: as §1
# [5] = test system: Cephalothinsensitive E. coli, Kl. pneumoniae and Pr. mirabilis; experiment: MIC, two-fold serial agar dilution in Mueller-Hinton agar, group (G-)-Ia; assay type: cell-based; settings: cephalothin-sensitive E. coli, 5 strains, read-out: Geometric Mean of MIC, (G-)-Ia
# Protocol: as §1
# (G-)Ia: Cephalothinsensitive E. coli (2 strains), Kl. pneumoniae (1
# strain) and Pr. mirabilis (2 strains)
# [6] = test system: Penicillinresistant S. aureus; experiment: MIC, two-fold serial agar dilution in Mueller-Hinton agar, group (G+)-Ib; assay type: cell-based; settings: Staphylococcus aureus, penicillin-resistant S. aureus, 5 strains, read-out: Geometric Mean of MIC, (G+)-Ib
# Protocol: as §1
# (G+)Ib: Penicillinresistant S. aureus (5
Structure (SMILES),MIC [1],MIC [2],MIC [3],MIC [4],MIC [5],MIC [6]
"C[N+]1(C/C=C/C2=C(C(=O)[O-])N3C(=O)C(NC(=O)/C(=N\OC4(C(=O)O)CCC4)c4csc(N)n4)[C@H]3SC2)CC=CC1 (stereo partly shown) [Compound I-5F, 7-[(Z)-2-(2-Aminothiazol-4-yl)-2-(1-carboxycyclobut-1-oxyimino)acetamido]-3-[(E)-3-(1-methyl-3-pyrrolinio)-1-propen-1-yl]-3-cephem-4-carboxylate]",0.17 µg/mL,2.4 µg/mL,0.22 µg/mL,1.5 µg/mL,0.037 µg/mL,4 µg/mL
"Nc1ccc[n+](C/C=C/C2=C(C(=O)[O-])N3C(=O)C(NC(=O)/C(=N\OC4(C(=O)O)CCC4)c4csc(N)n4)[C@H]3SC2)c1 (stereo partly shown) [Compound I-5E, 7-[(Z)-2-(2-Aminothiazol-4-yl)-2-(1-carboxycyclobut-1-oxyimino)acetamido]-3-[(E)-3-(3-amino-1-pyridinio)-1-propen-1-yl]-3-cephem-4-carboxylate]",0.15 µg/mL,1.9 µg/mL,–,1.2 µg/mL,0.016 µg/mL,3.1 µg/mL
"CO/N=C(\C(=O)NC1C(=O)N2C(C(=O)[O-])=C(/C=C/C[n+]3ccccc3)CS[C@H]12)c1csc(N)n1 (stereo partly shown) [Compound I-1B, 7-[(Z)-2-(2-Aminothiazol-4-yl)-2-methoxyiminoacetamido]-3-[(E)-3-pyridinio-1-propen-1-yl]-3-cephem-4-carboxylate]",0.1 µg/mL,5.7 µg/mL,0.05 µg/mL,0.2 µg/mL,0.012 µg/mL,0.52 µg/mL
C[N+]1(C/C=C/C2=C(C(=O)[O-])N3C(=O)C(NC(=O)/C(=N\OC4(C(=O)O)CCC4)c4csc(N)n4)C3SC2)CCCC1 (stereo not shown) [Compound I-5A],0.26 µg/mL,2.6 µg/mL,0.23 µg/mL,1.8 µg/mL,0.038 µg/mL,4.7 µg/mL
"CO/N=C(\C(=O)NC1C(=O)N2C(C(=O)[O-])=C(/C=C/C[N+](C)(C)C)CS[C@H]12)c1csc(N)n1 (stereo partly shown) [Compound I-1D, 7-[(Z)-2-(2-Aminothiazol-4-yl)-2-methoxyiminoacetamido]-3-[(E)-3-trimethylammonio-1-propen-1-yl]-3-cephem-4-carboxylate]",0.1 µg/mL,3.1 µg/mL,0.074 µg/mL,0.17 µg/mL,0.0093 µg/mL,0.59 µg/mL
"CO/N=C(\C(=O)NC1C(=O)N2C(C(=O)[O-])=C(/C=C/C[n+]3cccc(N)c3)CS[C@H]12)c1csc(N)n1 (stereo partly shown) [Compound I-1E, 7-[(Z)-2-(2-Aminothiazol-4-yl)-2-methoxyiminoacetamido]-3-[(E)-3-(3-aminopyridinio)-1-propen-1-yl]-3-cephem-4-carboxylate]",0.043 µg/mL,5.7 µg/mL,0.05 µg/mL,0.1 µg/mL,< 0.0053 µg/mL,0.3 µg/mL
"CO/N=C(\C(=O)NC1C(=O)N2C(C(=O)[O-])=C(/C=C/C[n+]3ccc(N)cc3)CS[C@H]12)c1csc(N)n1 (stereo partly shown) [Compound I-1I, 7-[(Z)-2-(2-Aminothiazol-4-yl)-2-methoxyiminoacetamido]-3-[(E)-3-(4-amino-1-pyridinio)-1-propen-1-yl]-3-cephem-4-carboxylate]",0.15 µg/mL,> 25 µg/mL,0.1 µg/mL,0.11 µg/mL,< 0.016 µg/mL,0.34 µg/mL
"Nc1nc(/C(=N/OC2(C(=O)O)CCC2)C(=O)NC2C(=O)N3C(C(=O)[O-])=C(/C=C/C[n+]4ccc5sc(N)nc5c4)CS[C@H]23)cs1 (stereo partly shown) [Compound I-5C, 7-[(Z)-2-(2-Aminothiazol-4-yl)-2-(1-carboxycyclobut-1-oxyimino)acetamido]-3-[(E)-3-(2-amino-5-thiazolo[4,5-c]pyridinio)-1-propen-1-yl]-3-cephem-4-carboxylate]",0.14 µg/mL,2.7 µg/mL,0.15 µg/mL,1.3 µg/mL,0.015 µg/mL,4.4 µg/mL
"CC(C)(O/N=C(\C(=O)NC1C(=O)N2C(C(=O)[O-])=C(/C=C/C[N+]3(C)CCCC3)CS[C@H]12)c1csc(N)n1)C(=O)O (stereo partly shown) [Compound I-4A, 7-[(Z)-2-(2-Aminothiazol-4-yl)-2-(2-carboxy-2-propoxyimino)acetamido]-3-[(E)-3-(1-methylpyrrolidinio)-1-propen-1-yl]-3-cephem-4-carboxylate]",0.17 µg/mL,2.3 µg/mL,0.2 µg/mL,2.3 µg/mL,0.036 µg/mL,4.1 µg/mL
"Nc1nc(/C(=N/OC2(C(=O)O)CCC2)C(=O)NC2C(=O)N3C(C(=O)[O-])=C(/C=C/C[n+]4ccccc4)CS[C@H]23)cs1 (stereo partly shown) [Compound I-5B, 7-[(Z)-2-(2-Aminothiazol-4-yl)-2-(1-carboxycyclobut-1-oxyimino)acetamido]-3-[(E)-3-pyridinio-1-propen-1-yl]-3-cephem-4-carboxylate]",0.17 µg/mL,2 µg/mL,0.23 µg/mL,1.6 µg/mL,0.019 µg/mL,4.7 µg/mL
"CC(C)(O/N=C(\C(=O)NC1C(=O)N2C(C(=O)[O-])=C(/C=C/C[n+]3ccccc3)CS[C@H]12)c1csc(N)n1)C(=O)O (stereo partly shown) [Compound I-4B, 7-[(Z)-2-(2-Aminothiazol-4-yl)-2-(2-carboxy-2-propoxyimino)acetamido]-3-[(E)-3-pyridinio-1-propen-1-yl]-3-cephem-4-carboxylate]",0.41 µg/mL,5 µg/mL,0.37 µg/mL,6 µg/mL,0.046 µg/mL,15 µg/mL
"CSc1scc[n+]1C/C=C/C1=C(C(=O)[O-])N2C(=O)C(NC(=O)/C(=N\OC3(C(=O)O)CCC3)c3csc(N)n3)[C@H]2SC1 (stereo partly shown) [Compound I-5G, 7-[(Z)-2-(2-Aminothiazol-4-yl)-2-(1-carboxycyclobut-1-oxyimino)acetamido]-3-[(E)-3-(2-methylthio-3-thiazolio)-1-propen-1-yl]-3-cephem-4-carboxylate]",0.13 µg/mL,1.9 µg/mL,–,0.84 µg/mL,0.014 µg/mL,2.8 µg/mL
"CO/N=C(\C(=O)NC1C(=O)N2C(C(=O)[O-])=C(/C=C/C[n+]3ccsc3SC)CS[C@H]12)c1csc(N)n1 (stereo partly shown) [Compound I-1G, 7-[(Z)-2-(2-Aminothiazol-4yl)-2-methoxyiminoacetamido]-3-[(E)-3-(2-methylthio-3-thiazolio)-1-propen-1-yl]-3-cephem-4-carboxylate]",0.085 µg/mL,7.6 µg/mL,0.074 µg/mL,0.15 µg/mL,0.014 µg/mL,0.39 µg/mL
"CO/N=C(\C(=O)NC1C(=O)N2C(C(=O)[O-])=C(/C=C/C[N+]3(C)CCCC3)CS[C@H]12)c1csc(N)n1 (stereo partly shown) [Compound I-1A, 7-[(Z)-2-(2-Aminothiazol-4-yl)-2-methoxyiminoacetamido]-3-[(E)-3-(1-methylpyrrolidinio)-1-propen-1-yl]-3-cephem-4-carboxylate]",0.13 µg/mL,5.1 µg/mL,0.11 µg/mL,0.22 µg/mL,0.021 µg/mL,0.59 µg/mL
"Nc1cc[n+](C/C=C/C2=C(C(=O)[O-])N3C(=O)C(NC(=O)/C(=N\OC4(C(=O)O)CCC4)c4csc(N)n4)C3SC2)cc1 (stereo not shown) [Compound I-5I, 7-[(Z)-2-(2-Aminothiazol-4-yl)-2-(1-carboxycyclobut-1-oxyimino)acetamido]-3-[(E)-3-(4-aminopyridino)-1-propen-1-yl]-3-cephem-4-carboxylate]",0.22 µg/mL,3.5 µg/mL,0.2 µg/mL,1.6 µg/mL,0.019 µg/mL,4.7 µg/mL
